Test results reported in ChEMBL document CHEMBL1201862, “PubChem BioAssay data set” (2004).
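Step 1: Grow cells in 96-well plates. Step 2: Expose to compound for 48 hours at 5 concentrations. Step 3: Interpolate endpoints linearly; if unreached, use highest concentration. At the GI50, growth is halved.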 The source made the active and inactive calls. Rule as the data show it: active = GI50 up to about 1.1 µM and inactive = higher. Non-standard residues stand in square brackets, D forms with d. Residues, ends and D or L forms follow the SMILES beside them. Ava = NCCCCC(=O)O; Mpa = O=C(O)CCS

Experiments:
Assay in all cases: growth of human tumour cells (NCI), 48 h
SF-539 = system: SF-539
SK-OV-3 = system: SK-OV-3
MOLT-4 = system: MOLT-4
COLO 205 = system: COLO 205
RXF 393 = system: RXF 393
CCRF-CEM = system: CCRF-CEM
SW-620 = system: SW-620
SK-MEL-5 = system: SK-MEL-5
OVCAR-4 = system: OVCAR-4
HT-29 = system: HT-29
NCI-H522 = system: NCI-H522
MCF7 = system: MCF7
LOX IMVI = system: LOX IMVI
TK-10 = system: TK-10
KM12 = system: KM12
SN12C = system: SN12C
HL-60 = system: HL-60
SF-295 = system: SF-295
HOP-62 = system: HOP-62
MDA-N = system: MDA-N
NCI-H23 = system: NCI-H23
PC-3 = system: PC-3
A549 = system: A549
A498 = system: A498
M14 = system: M14
DU-145 = system: DU-145
HCT-15 = system: HCT-15
OVCAR-3 = system: OVCAR-3
UACC-257 = system: UACC-257
HOP-92 = system: HOP-92
OVCAR-5 = system: OVCAR-5
UO-31 = system: UO-31
CAKI-1 = system: CAKI-1
ACHN = system: ACHN
BT-549 = system: BT-549
SNB-75 = system: SNB-75
NCI/ADR-RES = system: NCI/ADR-RES
SF-268 = system: SF-268
OVCAR-8 = system: OVCAR-8
SR = system: SR
U-251 = system: U-251
MDA-MB-435 = system: MDA-MB-435
SNB-19 = system: SNB-19
Malme-3M = system: Malme-3M
NCI-H460 = system: NCI-H460
IGROV-1 = system: IGROV-1
786-0 = system: 786-0
NCI-H226 = system: NCI-H226
MDA-MB-231 = system: MDA-MB-231
RPMI-8226 = system: RPMI-8226
UACC-62 = system: UACC-62
T47D = system: T47D
SK-MEL-28 = system: SK-MEL-28
K562 = system: K562
SK-MEL-2 = system: SK-MEL-2
HCT-116 = system: HCT-116
Hs-578T = system: Hs-578T
EKVX = system: EKVX
HCC 2998 = system: HCC 2998

CC(NC(=O)CCS)C(=O)NC(C)C(=O)NC(Cc1c[nH]c2ccccc12)C(=O)NC(Cc1c[nH]cn1)C(=O)NC(CO)C(=O)NC(Cc1c[nH]c2ccccc12)C(=O)NCCCCC(=O)NC(C)C(=O)NC(CCC(N)=O)C(=O)NC(CCCCN)C(=O)NC(C)C(=O)NC(CCCNC(=N)N)C(=O)NC(CCCCN)C(N)=O (stereo unspecified) ([Mpa]AAWHSW[Ava]AQKARK-NH2; configuration not given here)
GI50 (SF-539): > 100 µM (inactive)
GI50 (SK-OV-3): > 100 µM (inactive)
GI50 (MOLT-4): > 100 µM (inactive)
GI50 (COLO 205): 43.5 µM (inactive)
GI50 (RXF 393): > 100 µM (inactive)
GI50 (CCRF-CEM): 79.4 µM (inactive)
GI50 (SW-620): 94.4 µM (inactive)
GI50 (SK-MEL-5): 35.6 µM (inactive)
GI50 (OVCAR-4): > 100 µM (inactive)
GI50 (HT-29): > 100 µM (inactive)
GI50 (NCI-H522): > 100 µM (inactive)
GI50 (MCF7): > 100 µM (inactive)
GI50 (LOX IMVI): > 100 µM (inactive)
GI50 (TK-10): > 100 µM (inactive)
GI50 (KM12): 26.2 µM (inactive)
GI50 (SN12C): > 100 µM (inactive)
GI50 (HL-60): 24.7 µM (inactive)
GI50 (SF-295): > 100 µM (inactive)
GI50 (HOP-62): > 100 µM (inactive)
GI50 (MDA-N): 54.2 µM (inactive)
GI50 (NCI-H23): > 100 µM (inactive)
GI50 (PC-3): > 100 µM (inactive)
GI50 (A549): > 100 µM (inactive)
GI50 (A498): > 100 µM (inactive)
GI50 (M14): > 100 µM (inactive)
GI50 (DU-145): 87.9 µM (inactive)
GI50 (HCT-15): > 100 µM
GI50 (OVCAR-3): > 100 µM (inactive)
GI50 (UACC-257): 24.2 µM (inactive)
GI50 (HOP-92): > 100 µM (inactive)
GI50 (OVCAR-5): > 100 µM (inactive)
GI50 (UO-31): > 100 µM (inactive)
GI50 (CAKI-1): 44.2 µM (inactive)
GI50 (ACHN): > 100 µM (inactive)
GI50 (BT-549): > 100 µM (inactive)
GI50 (SNB-75): > 100 µM (inactive)
GI50 (NCI/ADR-RES): > 100 µM (inactive)
GI50 (SF-268): 29.2 µM (inactive)
GI50 (OVCAR-8): 90.2 µM (inactive)
GI50 (SR): 87.5 µM (inactive)
GI50 (U-251): 43.2 µM (inactive)
GI50 (MDA-MB-435): 45.9 µM (inactive)
GI50 (SNB-19): > 100 µM (inactive)
GI50 (Malme-3M): 19 µM (inactive)
GI50 (NCI-H460): 37.2 µM (inactive)
GI50 (IGROV-1): > 100 µM (inactive)
GI50 (786-0): 31.6 µM (inactive)
GI50 (NCI-H226): > 100 µM (inactive)
GI50 (MDA-MB-231): > 100 µM (inactive)
GI50 (RPMI-8226): > 100 µM (inactive)
GI50 (UACC-62): 22.5 µM (inactive)
GI50 (T47D): 23.9 µM (inactive)
GI50 (SK-MEL-28): 34.7 µM (inactive)
GI50 (K562): 26.9 µM (inactive)
GI50 (SK-MEL-2): > 100 µM (inactive)
GI50 (HCT-116): > 100 µM (inactive)
GI50 (Hs-578T): > 100 µM (inactive)
GI50 (EKVX): > 100 µM (inactive)

CC(=O)Nn1c(Cc2ccc(Cl)cc2)nn(C)c1=O
GI50 (SF-539): > 100 µM (inactive)
GI50 (SK-OV-3): > 100 µM (inactive)
GI50 (MOLT-4): > 100 µM (inactive)
GI50 (COLO 205): > 100 µM (inactive)
GI50 (CCRF-CEM): > 100 µM (inactive)
GI50 (SW-620): > 100 µM (inactive)
GI50 (SK-MEL-5): > 100 µM (inactive)
GI50 (OVCAR-4): > 100 µM (inactive)
GI50 (HT-29): > 100 µM (inactive)
GI50 (NCI-H522): > 100 µM (inactive)
GI50 (MCF7): > 100 µM (inactive)
GI50 (LOX IMVI): > 100 µM (inactive)
GI50 (TK-10): > 100 µM (inactive)
GI50 (KM12): > 100 µM (inactive)
GI50 (SN12C): > 100 µM (inactive)
GI50 (HL-60): > 100 µM (inactive)
GI50 (SF-295): > 100 µM (inactive)
GI50 (HOP-62): > 100 µM (inactive)
GI50 (MDA-N): > 100 µM (inactive)
GI50 (NCI-H23): > 100 µM (inactive)
GI50 (PC-3): > 100 µM (inactive)
GI50 (A549): > 100 µM (inactive)
GI50 (A498): > 100 µM (inactive)
GI50 (M14): > 100 µM (inactive)
GI50 (DU-145): > 100 µM (inactive)
GI50 (HCT-15): > 100 µM
GI50 (HCC 2998): > 100 µM (inactive)
GI50 (OVCAR-3): > 100 µM (inactive)
GI50 (UACC-257): > 100 µM (inactive)
GI50 (HOP-92): > 100 µM (inactive)
GI50 (OVCAR-5): > 100 µM (inactive)
GI50 (UO-31): > 100 µM (inactive)
GI50 (CAKI-1): > 100 µM (inactive)
GI50 (ACHN): > 100 µM (inactive)
GI50 (BT-549): > 100 µM (inactive)
GI50 (SNB-75): > 100 µM (inactive)
GI50 (NCI/ADR-RES): > 100 µM (inactive)
GI50 (SF-268): > 100 µM (inactive)
GI50 (OVCAR-8): > 100 µM (inactive)
GI50 (SR): > 100 µM (inactive)
GI50 (U-251): > 100 µM (inactive)
GI50 (MDA-MB-435): > 100 µM (inactive)
GI50 (SNB-19): > 100 µM (inactive)
GI50 (Malme-3M): > 100 µM (inactive)
GI50 (NCI-H460): > 100 µM (inactive)
GI50 (IGROV-1): > 100 µM (inactive)
GI50 (786-0): > 100 µM (inactive)
GI50 (NCI-H226): > 100 µM (inactive)
GI50 (MDA-MB-231): > 100 µM (inactive)
GI50 (RPMI-8226): > 100 µM (inactive)
GI50 (UACC-62): > 100 µM (inactive)
GI50 (T47D): > 100 µM (inactive)
GI50 (SK-MEL-28): > 100 µM (inactive)
GI50 (K562): > 100 µM (inactive)
GI50 (SK-MEL-2): > 100 µM (inactive)
GI50 (HCT-116): > 100 µM (inactive)
GI50 (Hs-578T): > 100 µM (inactive)
GI50 (EKVX): > 100 µM (inactive)
